The values that follow come from patent US20240262826A1, “WILD TYPE KIT INHIBITORS” (Blueprint Medicines Corporation, priority 2022, published 2024).

pIC50: −log10 of the molar value.

The assay concerns the target wild type c-kit (Homo sapiens (Human), UniProt P10721). Briefly: MSD Phospho c-Kit (Tyr721) Assay Whole Cell Lysate Kit in SCF-stimulated M-07e cells (pKIT assay, marked *). It is filed as cell-based. Particulars: Meso Scale Discovery (MSD) assay (values marked *). As to the method:
The ability of compounds of the disclosure (described herein as test compounds) to inhibit autophosphorylation of wild type c-kit was measures using either a PathScan phospho c-kit (Tyr719) sandwich ELISA (CST #7298) or a Phospho c-Kit (Tyr721) Assay Whole Cell Lysate Kit (MSD: 515DPD/catalog number K15119D-2).
For the MSD Phospho c-Kit (Tyr721) Assay Whole Cell Lysate Kit: M-07e cells were maintained in Iscove's Modified Dulbecco's Medium (IMDM) media supplemented with 10% FBS, 5 ng/ml granulocyte-macrophage colony-stimulating factor (GM-CSF) and 100 units/mL Penicillin-Streptomycin, and grown in a 37° C., 5% CO2 in a humidified tissue culture incubator. M-07e cells were washed with phenol red-free, serum-free, GM-CSF-free IMDM and seeded in the same media at 100,000 cells well in a volume of 50 ul in a 96-well U-bottom plate. The cells were incubated for 4 hours, followed by the addition of test compound at a final DMSO concentration of 0.25% for 60 min at 37° C. to generate an 8-point dose concentration series of test compounds. The cells were stimulated with 50 ng/ml human SCF for 10 min at room temperature. Cells were then lysed by the addition of 16.5 ul of PerkinElmer 5× AlphaLISA Lysis Buffer supplemented with Cell Signaling Technologies protease/phosphatase inhibitor. Lysis was encouraged by shaking at 4° C. for 30 minutes.
25 ul of lysate was transferred to the MSD plate and the plate was shaken at 700 rpm at room temperature for one hour, followed by washing 3 times with Tris wash buffer. Next, 25 ul of detection antibody solution (diluted from 50× stock in antibody dilution buffer) was added. After shaking at 700 rpm at room temperature for one hour, the plate was washed 3 times with Tris wash buffer. The plate was then read on MSD Sector Imager immediately after 150 ul of reading buffer added to each well.
An IC50 was calculated using a 4-parameter logistic nonlinear regression.

wild type c-kit, sequence (P10721 26-976): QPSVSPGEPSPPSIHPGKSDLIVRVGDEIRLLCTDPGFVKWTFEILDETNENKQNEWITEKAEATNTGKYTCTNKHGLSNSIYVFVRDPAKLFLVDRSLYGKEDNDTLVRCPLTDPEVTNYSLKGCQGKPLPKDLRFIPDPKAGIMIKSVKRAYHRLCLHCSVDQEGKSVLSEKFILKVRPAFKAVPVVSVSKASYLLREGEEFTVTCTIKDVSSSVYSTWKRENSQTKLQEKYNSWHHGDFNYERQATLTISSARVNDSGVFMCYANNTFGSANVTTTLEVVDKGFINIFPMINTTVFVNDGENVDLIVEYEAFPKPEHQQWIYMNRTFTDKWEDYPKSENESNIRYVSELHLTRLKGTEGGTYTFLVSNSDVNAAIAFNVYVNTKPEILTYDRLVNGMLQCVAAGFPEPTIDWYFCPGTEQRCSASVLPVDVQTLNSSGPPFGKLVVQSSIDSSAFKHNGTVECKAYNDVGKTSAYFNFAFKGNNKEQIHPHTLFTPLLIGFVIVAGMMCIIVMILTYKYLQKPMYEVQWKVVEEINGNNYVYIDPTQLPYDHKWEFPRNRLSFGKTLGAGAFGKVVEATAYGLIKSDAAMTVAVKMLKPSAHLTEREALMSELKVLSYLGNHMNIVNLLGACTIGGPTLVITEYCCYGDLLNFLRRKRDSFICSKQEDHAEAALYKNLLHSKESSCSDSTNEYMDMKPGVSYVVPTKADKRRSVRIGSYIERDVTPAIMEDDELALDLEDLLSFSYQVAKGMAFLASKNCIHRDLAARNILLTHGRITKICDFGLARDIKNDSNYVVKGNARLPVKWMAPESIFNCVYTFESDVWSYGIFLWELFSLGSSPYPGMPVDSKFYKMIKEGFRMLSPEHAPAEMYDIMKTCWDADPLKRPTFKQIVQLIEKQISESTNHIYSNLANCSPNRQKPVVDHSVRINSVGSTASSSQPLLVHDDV

As to `Cc1ccc(-c2nnn(C3CCC3)n2)cc1NC(=O)c1cnn2ccccc12` [Example 8, N-(5-(2-cyclobutyl-2H-tetrazol-5-yl)-2-methylphenyl)pyrazolo[1,5-a]pyridine-3-carboxamide], the pIC50 (in general, the IC50 on a negative log10 scale, so that one unit is a factor of ten) is 8.57.
In the case of `Cc1ccc(-c2nnn(CC3CC3(F)F)n2)cc1NC(=O)c1cnn2ccccc12` (stereo not shown) [Example 6, N-(5-(2-((2,2-difluorocyclopropyl)methyl)-2H-tetrazol-5-yl)-2-methylphenyl)pyrazolo[1,5-a]pyridine-3-carboxamide] it was 8.35; in that of `Cc1ccc(-c2nnn([C@H]3C[C@H](C(F)(F)F)C3)n2)cc1NC(=O)c1cnn2ccccc12` [Example 24, N-(2-methyl-5-(2-((1r,3r)-3-(trifluoromethyl)cyclobutyl)-2H-tetrazol-5-yl)phenyl)pyrazolo[1,5-a]pyridine-3-carboxamide or N-(2-methyl-5-(2-((1s,3s)-3-(trifluoromethyl)cyclobutyl)-2H-tetrazol-5-yl)phenyl)pyrazolo[1,5-a]pyridine-3-carboxamide], 8.68.
`Cc1ccc(-c2nnn(C3CC(F)(F)C3)n2)cc1NC(=O)c1cnn2ccc(-c3cnn(CCO)c3)cc12` [Example 46, N-(5-(2-(3,3-difluorocyclobutyl)-2H-tetrazol-5-yl)-2-methylphenyl)-5-(1-(2-hydroxyethyl)-1H-pyrazol-4-yl)pyrazolo[1,5-a]pyridine-3-carboxamide]: the pIC50 is 9.22.
In the case of `Cc1ccc(-c2nnn([C@@H](C)c3ccccc3F)n2)cc1NC(=O)c1cnn2ccccc12` [Example 33, (S)-N-(5-(2-(1-(2-fluorophenyl)ethyl)-2H-tetrazol-5-yl)-2-methylphenyl)pyrazolo[1,5-a]pyridine-3-carboxamide] it was 8.57; in that of `Cc1ccc(-c2nnn([C@H](C)C3CC3)n2)cc1NC(=O)c1cnn2ccccc12` (single isomer, unassigned) [Example 38, (S)-N-(5-(2-(1-cyclopropylethyl)-2H-tetrazol-5-yl)-2-methylphenyl)pyrazolo[1,5-a]pyridine-3-carboxamide or (R)-N-(5-(2-(1-cyclopropylethyl)-2H-tetrazol-5-yl)-2-methylphenyl)pyrazolo[1,5-a]pyridine-3-carboxamide], 8.14; in that of `Cc1ccc(-c2nnn(C3CN(S(=O)(=O)C(F)(F)F)C3)n2)cc1NC(=O)c1cnn2ccccc12` [Example 182], 8.40.
In the case of `Cc1ccc(-c2nnn([C@H]3C[C@@H](C(F)(F)F)C3)n2)cc1NC(=O)c1cnn2ccccc12` [Example 23, N-(2-methyl-5-(2-((1s,3s)-3-(trifluoromethyl)cyclobutyl)-2H-tetrazol-5-yl)phenyl)pyrazolo[1,5-a]pyridine-3-carboxamide or N-(2-methyl-5-(2-((1r,3r)-3-(trifluoromethyl)cyclobutyl)-2H-tetrazol-5-yl)phenyl)pyrazolo[1,5-a]pyridine-3-carboxamide] it was 8.59.
In the case of `Cc1ccc(-c2nnn(CC3CCOCC3)n2)cc1NC(=O)c1cnn2ccccc12` [Example 3, N-(2-methyl-5-(2-((tetrahydro-2H-pyran-4-yl)methyl)-2H-tetrazol-5-yl)phenyl)pyrazolo[1,5-a]pyridine-3-carboxamide] it was 8.08.
`COC(=O)N1CC(c2cnn(-c3ccc(Cl)c(NC(=O)c4cnn5ccccc45)c3)n2)C1` [Example 193]: the pIC50 was 8.28.
The compound `Cc1ccc(-c2nnn(Cc3ccccc3F)n2)cc1NC(=O)c1cnn2ccccc12` [Example 13, N-(5-(2-(2-fluorobenzyl)-2H-tetrazol-5-yl)-2-methylphenyl)pyrazolo[1,5-a]pyridine-3-carboxamide] showed a pIC50 of 8.80.
In turn, `Cc1ccc(-c2nnn(C3CC3)n2)cc1NC(=O)c1cnn2ccccc12` [Example 28, N-(5-(2-cyclopropyl-2H-tetrazol-5-yl)-2-methylphenyl)pyrazolo[1,5-a]pyridine-3-carboxamide] had a pIC50 of 8.04.
`Cc1ccc(-c2nnn(C3CC4(C3)CC4(F)F)n2)cc1NC(=O)c1cnn2ccccc12` (single isomer, unassigned) [Example 42, N-(5-(2-((3r,5r)-1,1-difluorospiro [2.3]hexan-5-yl)-2H-tetrazol-5-yl)-2-methylphenyl)pyrazolo[1,5-a]pyridine-3-carboxamide or N-(5-(2-((3s,5s)-1,1-difluorospiro[2.3]hexan-5-yl)-2H-tetrazol-5-yl)-2-methylphenyl)pyrazolo[1,5-a]pyridine-3-carboxamide]: the pIC50 is 8.42.
In the case of `CO[C@H]1C[C@@H](n2nnc(-c3ccc(C)c(NC(=O)c4cnn5ccccc45)c3)n2)C1` [Example 35, N-(5-(2-((1s,3s)-3-methoxycyclobutyl)-2H-tetrazol-5-yl)-2-methylphenyl)pyrazolo[1,5-a]pyridine-3-carboxamide] it was 8.42.
With `O=C(Nc1cc(-c2nnn(CCOCC(F)(F)F)n2)ccc1Cl)c1cnn2ccccc12` [Example 22, N-(2-chloro-5-(2-(2-(2,2,2-trifluoroethoxy)ethyl)-2H-tetrazol-5-yl)phenyl)pyrazolo[1,5-a]pyridine-3-carboxamide], the pIC50 was 8.72.
In the case of `Cc1ccc(-c2nnn([C@H](C)C3CC3)n2)cc1NC(=O)c1cnn2ccccc12` (single isomer, unassigned) [Example 37, (R)-N-(5-(2-(1-cyclopropylethyl)-2H-tetrazol-5-yl)-2-methylphenyl)pyrazolo[1,5-a]pyridine-3-carboxamide or (S)-N-(5-(2-(1-cyclopropylethyl)-2H-tetrazol-5-yl)-2-methylphenyl)pyrazolo[1,5-a]pyridine-3-carboxamide] it was 8.21.
In the case of `Cc1ccc(-c2nnn(CC[C@@](C)(O)C(F)(F)F)n2)cc1NC(=O)c1cnn2ccccc12` (single isomer, unassigned) [Example 41, (R)-N-(2-methyl-5-(2-(4,4,4-trifluoro-3-hydroxy-3-methylbutyl)-2H-tetrazol-5-yl)phenyl)pyrazolo[1,5-a]pyridine-3-carboxamide or (S)-N-(2-methyl-5-(2-(4,4,4-trifluoro-3-hydroxy-3-methylbutyl)-2H-tetrazol-5-yl)phenyl)pyrazolo[1,5-a]pyridine-3-carboxamide] it was 8.74; in that of `Cc1ccc(-c2nnn(C3CC(F)C3)n2)cc1NC(=O)c1cnn2ccccc12` (stereo not shown) [Example 32, N-(5-(2-(3-fluorocyclobutyl)-2H-tetrazol-5-yl)-2-methylphenyl)pyrazolo[1,5-a]pyridine-3-carboxamide], 8.60.
In the case of `Cc1ccc(-c2nnn(C3CC(F)(F)C3)n2)cc1NC(=O)c1cnn2ccc(N3CCOCC3)cc12` [Example 79, N-(5-(2-(3,3-difluorocyclobutyl)-2H-tetrazol-5-yl)-2-methylphenyl)-5-morpholinopyrazolo[1,5-a]pyridine-3-carboxamide] it was 8.41; in that of `Cc1ccc(-n2nnc(C3CC3)n2)cc1NC(=O)c1cnn2ccccc12` [Example 152, N-(5-(5-cyclopropyl-2H-tetrazol-2-yl)-2-methylphenyl)pyrazolo[1,5-a]pyridine-3-carboxamide], 8.44; in that of `Cc1ccc(-c2nnn(C[C@H]3CC3(F)F)n2)cc1NC(=O)c1cnn2ccccc12` (single isomer, unassigned) [Example 26, (R)—N-(5-(2-((2,2-difluorocyclopropyl)methyl)-2H-tetrazol-5-yl)-2-methylphenyl)pyrazolo[1,5-a]pyridine-3-carboxamide or (S)—N-(5-(2-((2,2-difluorocyclopropyl)methyl)-2H-tetrazol-5-yl)-2-methylphenyl)pyrazolo[1,5-a]pyridine-3-carboxamide], 8.62.
Take `Cc1ccc(-c2nnn(C[C@H]3CCCCO3)n2)cc1NC(=O)c1cnn2ccccc12` (single isomer, unassigned) [Example 40, (S)-N-(2-methyl-5-(2-((tetrahydro-2H-pyran-2-yl)methyl)-2H-tetrazol-5-yl)phenyl)pyrazolo[1,5-a]pyridine-3-carboxamide or (R)-N-(2-methyl-5-(2-((tetrahydro-2H-pyran-2-yl)methyl)-2H-tetrazol-5-yl)phenyl)pyrazolo[1,5-a]pyridine-3-carboxamide]: the pIC50 is 8.51.
In the case of `Cc1ccc(-n2nnc(C3CN(S(=O)(=O)C4CC4)C3)n2)cc1NC(=O)c1cnn2ccccc12` [Example 188, N-(5-(5-(1-(cyclopropylsulfonyl)azetidin-3-yl)-2H-tetrazol-2-yl)-2-methylphenyl)pyrazolo[1,5-a]pyridine-3-carboxamide] it was 8.54; in that of `COCCS(=O)(=O)N1CC(c2nnn(-c3ccc(C)c(NC(=O)c4cnn5ccccc45)c3)n2)C1` [Example 189, N-(5-(5-(1-((2-methoxyethyl)sulfonyl)azetidin-3-yl)-2H-tetrazol-2-yl)-2-methylphenyl)pyrazolo[1,5-a]pyridine-3-carboxamide], 8.31.
With `COC(=O)N1CC(c2nnn(-c3ccc(Cl)c(NC(=O)c4cnn5ccccc45)c3)n2)C1` [Example 194], the pIC50 is 7.94.
